# Read-outs that look alike come from different tables or passages of the source.
# Key:
# NIH3T3 = experiment: MTT cytotoxicity, 48 h; assay type: cell-based, murine
# Procedure: (§1) The in vitro cytotoxicity of iridium(III) complexes 4a–4g was first evaluated against cancer cell lines PC-3 (human prostate) and T24 (human bladder) and the non-cancerous NIH-3T3 cell line (murine fibroblasts) using colorimetric MTT tests after 48 h of treatment. The dimeric iridium precursor [IrCl(ppy)2]2 was used as reference and the results are summarized in Table S1 (Supplementary Materials) in the supporting information file. […] The complexes were also evaluated for their cytotoxicity towards healthy NIH-3T3 cells, giving access to the selectivity index (SI). […] No linear correlation between lipophilicity and anti-cancer activity was found for the iridium(III) complexes 4a–4g. For the following biological studies, we focused on the C1 series.
# (§2) Table S1. Cytotoxic activity of iridium(III) NHC complexes 4a−4g expressed as GI50 (μM) values towards selected cancer and normal cell lines as determined by MTT assay (48 h).a Complex PC-3 T24 NIH3T3 SI (PC-3) SI (T24) […]
# (§3) a GI50 values correspond to the concentration of complexes causing 50 % inhibition of cell growth.
# (§4) Data were obtained from three independent experiments.
# (§5) The cytotoxic effects of the NHC precursors, the imidazolium salts, which represents the potential hydrolysis and/or degradation products of the complexes, have been published before [SI-1, SI-2]. […]
# PC-3 = experiment: MTT cytotoxicity, 48 h; assay type: cell-based, human
# Procedure: as §1, §2, §3, §4, §5
# T24 = experiment: MTT cytotoxicity, 48 h; assay type: cell-based, human
# Procedure: as §1, §2, §3, §4, §5
# T24 bladder cancer cells = experiment: MTT cell viability, 72 h, dark or 458 nm irradiation; assay type: cell-based, human; conditions: for GI50: 72 h, MTT
# Procedure: (§6) For all biology experiments, the compounds were solubilized in DMSO to reach a final fixed concentration equal to 0.1% v/v to avoid cytotoxicity caused by DMSO [89]. The results are normalized to controls (0.1% v/v DMSO). Depending on the cell type, approximatively 1000 to 10,000 cells/cm^2 were seeded in 48-well plates for MTT, ATP and GSH assays and 60 mm Petri dishes for Western blots. Cells were allowed to attach overnight and then incubated for 4 h with the different complexes (in the dark), then irradiated for 10 min, followed by an incubation in the dark up to 72 h.
# (§7) Irradiation was conducted using an in-house device: a series of blue light LEDs selected according to the absorption spectra of the compounds at a 458 nm wavelength with an emitted power of 9.6 watts. The absorbed energy, or irradiance, was measured at 458 nm with a Thorlabs Optical Power Meter PM100A at 5 and 10 cm distance between the cell layer and the light source and expressed as mW/cm^2.
# (§8) A tetrazolium-based MTT reagent (3-(4,5-dimethylthiazol-2-yl)-2,5-diphenyltetrazolium bromide) was used to determine cell viability, as previously described. After 72 h of treatment at 37 °C and 5% CO2, cells were incubated with 25 μL MTT solution (5 mg/mL; Sigma-Aldrich) for 4 h. After solubilization with 500 μL of lysis buffer (DMSO), formazan was quantified by spectrophotometry with a microplate reader at 570 nm absorbance (ClarioSTAR, BMG LabTech, Champigny-sur-Marne, France). GI50 values corresponding to the concentration that caused 50% inhibition of cell proliferation were calculated from dose–response curves obtained by nonlinear regression analysis. All results were calculated from data obtained in at least three independent experiments.
# [1] = system: MCF7/FasR breast cancer cells; experiment: as above; assay type: cell-based, human; conditions: for GI50: 72 h, MTT
# Procedure: as §6, §7, §8
# A549 lung cancer cells = experiment: as above; assay type: cell-based, human; conditions: for GI50: 72 h, MTT
# Procedure: as §6, §7, §8
# [2] = system: PC-3 prostate cancer cells; experiment: as above; assay type: cell-based, human; conditions: for GI50: 72 h, MTT
# Procedure: as §6, §7, §8
# HeLa cervix cancer cells = experiment: as above; assay type: cell-based, human; conditions: for GI50: 72 h, MTT
# Procedure: as §6, §7, §8
# [3] = Octanol–water partition coefficient, shake-flask method; assay type: physicochemical; conditions: n-octanol/water, UV absorbance 260 nm
# Procedure: Lipophilicities of all complexes have been measured by the classical shake-flask method, using UV absorption. The Log p values range from -0.063 to 0.861 in increasing order –0.063 (4a), 0.035 (4d), 0.519 (4f), 0.581 (4c), 0.842 (4b), 0.847 (4e) and 0.861 (4g).
# The octanol–water partition coefficients (P) of 4a to 4g were determined using a shake-flask method. Water (100 mL, distilled after milli-Q purification) and n-octanol (100 mL, Sigma-Aldrich, St. Louis, MO, USA, ACS spectrophotometric grade, ≥99%) were shaken together for 24 h to allow saturation of both phases. Stock solutions of the […] compounds (50 μM) were prepared in the aqueous phase and aliquots (1 mL) of each of these stock solutions were then added to an equal volume of the n-octanol phase. The resultant biphasic solutions were mixed for 1 h and then centrifuged (3000× g, 5 min) (Eppendorf Centrifuges 5415R and 5804R) to separate the phases. The concentrations of the complexes in the organic and aqueous phases were then determined using UV absorbance spectroscopy (260 nm). Log P was defined as the logarithm of the ratio of the concentrations of the studied complex in the organic and aqueous phases (Log P = Log {[Ir(org)]/[Ir(aq)]}; values reported are the means of at least two separate determinations).
# [4] = GI50 non-irradiated / GI50 irradiated
compound,measurement,setting,value
F[P-](F)(F)(F)(F)F.c1ccc(C[n+]2ccn3[c]2[Ir-3]24([c]5ccccc5-c5cccc[n+]52)([c]2ccccc2-c2cccc[n+]24)[c]2n(cc[n+]2Cc2ccccc2)C3)cc1 [Complex 4c],GI50,NIH3T3,7100 nM
same,GI50,PC-3; MTT,410 nM
same,SI (PC-3),PC-3; NIH3T3 vs PC-3,17.3
same,GI50,T24; MTT,430 nM
same,SI (T24),T24; NIH3T3 vs T24,16.5
same,GI50,"T24 bladder cancer cells; 458 nm irradiation 10 min, read-out: GI50 T24 Blue",91 nM
same,PI T24,T24 bladder cancer cells; [4],3.9
same,"SI vs MC3T3, T24 Blue","T24 bladder cancer cells; blue light, GI50 MC3T3 / GI50 T24",14.6
same,"SI vs NIH, T24 Blue","T24 bladder cancer cells; blue light, GI50 NIH-3T3 / GI50 T24",29.3
same,GI50,"T24 bladder cancer cells; dark, read-out: GI50 T24 Dark",358 nM
same,"SI vs MC3T3, T24 Dark","T24 bladder cancer cells; dark, GI50 MC3T3 / GI50 T24",3.2
same,"SI vs NIH, T24 Dark","T24 bladder cancer cells; dark, GI50 NIH-3T3 / GI50 T24",7.6
same,GI50,"[1]; 458 nm irradiation 10 min, read-out: GI50 MCF7 Blue",61 nM
same,PI MCF7,[1]; [4],4.1
same,"SI vs MC3T3, MCF7 Blue","[1]; blue light, GI50 MC3T3 / GI50 MCF7",21.8
same,"SI vs NIH, MCF7 Blue","[1]; blue light, GI50 NIH-3T3 / GI50 MCF7",43.8
same,GI50,"[1]; dark, read-out: GI50 MCF7 Dark",248 nM
same,"SI vs MC3T3, MCF7 Dark","[1]; dark, GI50 MC3T3 / GI50 MCF7",4.7
same,"SI vs NIH, MCF7 Dark","[1]; dark, GI50 NIH-3T3 / GI50 MCF7",11.0
same,GI50,"A549 lung cancer cells; 458 nm irradiation 10 min, read-out: GI50 A549 Blue",171 nM
same,PI A549,A549 lung cancer cells; [4],2.4
same,"SI vs MC3T3, A549 Blue","A549 lung cancer cells; blue light, GI50 MC3T3 / GI50 A549",7.8
same,"SI vs NIH, A549 Blue","A549 lung cancer cells; blue light, GI50 NIH-3T3 / GI50 A549",15.6
same,GI50,"A549 lung cancer cells; dark, read-out: GI50 A549 Dark",407 nM
same,"SI vs MC3T3, A549 Dark","A549 lung cancer cells; dark, GI50 MC3T3 / GI50 A549",2.9
same,"SI vs NIH, A549 Dark","A549 lung cancer cells; dark, GI50 NIH-3T3 / GI50 A549",6.7
same,GI50,"[2]; 458 nm irradiation 10 min, read-out: GI50 PC-3 Blue",116 nM
same,PI PC-3,[2]; [4],2.9
same,"SI vs MC3T3, PC-3 Blue","[2]; blue light, GI50 MC3T3 / GI50 PC-3",11.5
same,"SI vs NIH, PC-3 Blue","[2]; blue light, GI50 NIH-3T3 / GI50 PC-3",23.0
same,GI50,"[2]; dark, read-out: GI50 PC-3 Dark",336 nM
same,"SI vs MC3T3, PC-3 Dark","[2]; dark, GI50 MC3T3 / GI50 PC-3",3.5
same,"SI vs NIH, PC-3 Dark","[2]; dark, GI50 NIH-3T3 / GI50 PC-3",8.1
same,GI50,"HeLa cervix cancer cells; 458 nm irradiation 10 min, read-out: GI50 HeLa Blue",275 nM
same,PI HeLa,HeLa cervix cancer cells; [4],1.8
same,"SI vs MC3T3, HeLa Blue","HeLa cervix cancer cells; blue light, GI50 MC3T3 / GI50 HeLa",4.8
same,"SI vs NIH, HeLa Blue","HeLa cervix cancer cells; blue light, GI50 NIH-3T3 / GI50 HeLa",9.7
same,GI50,"HeLa cervix cancer cells; dark, read-out: GI50 HeLa Dark",494 nM
same,"SI vs MC3T3, HeLa Dark","HeLa cervix cancer cells; dark, GI50 MC3T3 / GI50 HeLa",2.3
same,"SI vs NIH, HeLa Dark","HeLa cervix cancer cells; dark, GI50 NIH-3T3 / GI50 HeLa",5.5
same,Log P,[3],0.581
